We go through four molecules from US20190308988A1, “OPIOID RECEPTOR ANTAGONIST PRODRUGS” (Nirsum Laboratories, Inc., priority 2017, published 2019).

Data set [1] can be described thus: Polymorph screening of solid state drug substances (Table 23). It counts as physicochemical. Particulars: stirred 50 °C 72 hours; for Dry method and appearance: dried solid.
Data set [2] in a line: Solubility determination in oil (Table 10). The settings on record: thermodynamic from solid; for solubility thermodynamic: water, Equilibrium solubility: Water. The procedure: A known amount of test substance (˜40 mg) was weighed into the vial, 100 μL of oil was added and heated to 60° C. and then system was slurried to reach equilibrium. […] Extra oil was added into the vial once compound precipitated out and then the system was re-equilibrated at 1000 rpm at room temperature (25° C.). Final concentration was determined by HPLC method as described below in Table 6a and 6b.

The nature of data set [3]: Dog pharmacokinetic studies, deep intramuscular administration. It is filed as in vivo, Beagle dogs. The settings on record: Beagle, dog, plasma, im, Sesame oil + 1% Benzyl Alcohol; for AUC(0-inf): read-out: AUC0-inf (ng · h/mL) prodrug; for half-life: read-out: Half-life t1/2 (hour) prodrug (converted). How it is done: The purpose of this study is to determine the pharmacokinetics of test compounds in plasma, following deep intramuscular administration to Beagle dogs (n=3, unless otherwise specified).
(§1) The dose formulation (concentration—400 mg base equivalents/ml in sesame oil+1% benzyl alcohol, unless otherwise specified) was administered via deep intramuscularly (unless otherwise specified). The injection vehicle was also dosed via deep intramuscular route (unless otherwise specified) on contralateral site of each animal at study initiation. The animals were sedated with Propofol at 6 mg/kg via IV administration. Following sedation hair was carefully removed from around the injection site and the area gently cleaned. Care will be taken to avoid irritating skin during shaving and cleaning the injection site. Then dogs will be dosed with deep IM administration. At least 2.5 cm depth from the surface into the central aspect of the quadriceps or biceps femoris muscle, by angling the needle toward the femur. If the needle hits the femur, simply draws back slightly and then inject. The dose volume will be determined by the animals' body weight collected on the morning of dosing day. For repeated administration, the injection sites may be rotated to minimize tissue injury.
Blood samples were collected from a peripheral vessel from restrained, non-sedated animals per sampling time point.
Approximately 0.8 mL blood will be collected at each time point.
Each collected blood sample was centrifuged for 4 minutes at 4° C. and 10000 rpm for plasma collection. Plasma was collected and transferred into a pre-labeled PP tube in dry ice at each time point and precipitated immediately using ACN at a ratio of 1:4 (plasma:ACN).
(§2) LC-MS/MS methods for the quantitative determination of test compound in biological matrix were developed. […] The sample analysis was performed concurrently with a set of calibration standards and two sets of QC samples using the LC-MS/MS method.
(§3) Plasma concentration versus time data was analyzed by non-compartmental approaches using the Phoenix WinNonlin 6.3 software program. Cmax, Tmax, T1/2, AUC(0-t), AUC(0-inf), MRT(0-t), MRT(0-inf) and graphs of plasma concentration versus time profile were prepared.

Data set [4] in a line: Dog body weights and clinical observation (Tables 66-86). It is filed as in vivo, Beagle dogs. Particulars: dog D1002, 48 mg/kg. The procedure: Weight monitoring was done every week.
as §1

A short description of data set [5]: Rat pharmacokinetic studies, intramuscular administration. It is filed as in vivo, male Sprague Dawley Rats. Particulars: male, Sprague Dawley, rat, plasma, im, Sesame oil + 1% Benzyl Alcohol; for AUC(0-inf): read-out: AUC0-inf (ng · h/mL) prodrug; for half-life: read-out: Half-life t1/2 (hour) prodrug (converted). How it is done:
The purpose of this study is to determine the pharmacokinetics of test compounds in plasma, following intramuscular administration to male Sprague Dawley Rats (n=3, unless otherwise specified).
The dose formulation of 400 mg base equivalents/ml in sesame oil+1% benzyl alcohol (unless otherwise specified) was administered by intramuscular injection. The dose volume was determined by the animals' body weight determined on the morning of dosing day.
Each collected blood sample was centrifuged for 4 minutes at 4° C. and 10000 rpm for plasma collection. Plasma was collected and transferred into a pre-labeled PP tube in dry ice at each time point and precipitated immediately using ACN at a ratio of 1:4 (plasma:ACN). Centrifuged again (10 minutes, 12000 rpm) and obtain the supernatant.
as §2, §3

A short description of data set [6]: Liver S9 fraction stability, human. It counts as in vitro ADME. Particulars: human liver S9 1.0 mg/ml, 2 μM, 37° C. The procedure:
(§4) Liver S9 fraction stability determination of the test compounds in dog, cynomolgus monkey and human is performed using HPLC-MS. Test compound (2 μM, 0.1% DMSO, 1% Methanol final concentration) was assessed for stability in a 50 μl phosphate buffer containing 1.0 mg/ml S9 protein from each of the three species and 5 mM D-saccharic acid-1, 4-lactone. Samples were incubated at 37° C. for 60 minutes and the % compound remaining was assessed.

Data set [7] can be described thus: Liver S9 fraction stability, monkey. Particulars: monkey liver S9 1.0 mg/ml, 2 μM, 37° C. It is filed as in vitro ADME, cynomolgus monkey. The procedure: as §4
Data set [8] in a line: Liver S9 fraction stability, dog. It counts as in vitro ADME. Particulars: dog liver S9 1.0 mg/ml, 2 μM, 37° C. The procedure: as §4
Where [9] appears, read: 25 °C, oil or lipid, Approximate Solubility in Excipient: Cottonseed oil, Heating Temp. 60 °C, Obs. Temp. 25 °C.
The mark [10] stands for this setting: 25 °C, oil or lipid, Approximate Solubility in Excipient: Sesame oil, Heating Temp. 60 °C, Obs. Temp. 25 °C.
Where [11] appears, read: 40 °C, oil or lipid, Approximate Solubility in Excipient: Cottonseed oil, Heating Temp. 60 °C, Obs. Temp. 40 °C.
The mark [12] stands for this setting: 40 °C, oil or lipid, Approximate Solubility in Excipient: Sesame oil, Heating Temp. 60 °C, Obs. Temp. 40 °C.

Values after ≈ are worked out from the molar mass of the structure shown.

Take `C=C1CC[C@@]2(O)C3Cc4ccc(OC(=O)NC(C)(C)C)c5c4[C@@]2(CCN3CC2CC2)[C@H]1O5` [Compound 40, (4aS,7aS,12bS)-3-(cyclopropylmethyl)-4a-hydroxy-7-methylene-2,3,4,4a,5,6,7,7a-octahydro-1H-4,12-methanobenzofuro[3,2-e]isoquinolin-9-yl tert-butylcarbamate]: the melting point (usually the temperature of the solid-liquid transition) was 107.6 °C. Besides, in [1] (Acetone), the “XRPD results (Dried)” value is on record as “Amorphous”; the “Dry method and appearance” value is on record as “Evaporation/white powder”. For the same molecule, in [1] (EtOAc), the “XRPD results (Dried)” value is “Pattern A”; the “Dry method and appearance” value is given as “Evaporation/white powder”. Also, in [1] (Heptane), the “XRPD results (Dried)” value is reported as “Pattern A”; the “Dry method and appearance” value is given as “Centrifugation/white powder”. In data set [1] (Isopropanol), the “XRPD results (Dried)” value is recorded as “Amorphous”; the “Dry method and appearance” value is “Evaporation/oil”. In addition, in data set [1] (MTBE), the “XRPD results (Dried)” value was “Amorphous”; the “Dry method and appearance” value is “Evaporation/white powder”.
On to `C=C1CC[C@@]2(O)C3Cc4ccc(OCOC(=O)OCCCCCCCCCCC)c5c4[C@@]2(CCN3CC2CC2)[C@H]1O5` [Compound 5, (((4aS,7aS,12bS)-3-(cyclopropylmethyl)-4a-hydroxy-7-methylene-2,3,4,4a,5,6,7,7a-octahydro-1H-4,12-methanobenzofuro[3,2-e]isoquinolin-9-yl)oxy)methyl undecyl carbonate], for which the solubility (as a rule, how much of the substance goes into solution per volume) in [2] (25 °C, oil or lipid, Solubility by volumetric flask method: Cottonseed oil, volumetric flask method, Heating Temp. 60 °C, Obs. Temp. 25 °C) was over 402 mg/mL; in data set [2] (25 °C, oil or lipid, Solubility by volumetric flask method: Sesame oil, volumetric flask method, Heating Temp. 60 °C, Obs. Temp. 25 °C), over 401 mg/mL. Also, the thermodynamic solubility (as a rule, solubility found after equilibrating the solid with the medium) in data set [2] (40 °C, section 'Solubility by volumetric flask method', Heating Temp. 40 °C, Obs. Temp. 40 °C) was under 0.001 mg/mL. Also, the AUC(0-inf) in [3] (48 mg/kg, IM 48 mg/kg) was determined as 3870 ng·h/mL. Moreover, in data set [3] (48 mg/kg, IM 48 mg/kg), the half-life was 70.9 h. The BT is 3 cm * 3 cm/BT: 38.9 °C in [4] (456 hr), 3 cm * 3 cm/BT: 38.7 °C in [4] (504 hr) and 3 cm * 4 cm/BT: 39.4 °C in data set [4] ([…]).
Consider `C=C1CC[C@@]2(O)C3Cc4ccc(OC(=O)CCCCCCC/C=C/CCCCCCCC)c5c4[C@@]2(CCN3CC2CC2)[C@H]1O5` [Compound 15, (4aS,7aS,12bS)-3-(cyclopropylmethyl)-4a-hydroxy-7-methylene-2,3,4,4a,5,6,7,7a-octahydro-1H-4,12-methanobenzofuro[3,2-e]isoquinolin-9-yl (E)-octadec-9-enoate], for which the solubility at 24 h in data set [2] (setting [9]) was over 403 mg/mL; in data set [2] (setting [10]), over 396 mg/mL. For the same molecule, the solubility is under 51 mg/mL in data set [2] (40 °C, oil or lipid, Approximate Solubility in Excipient: Cottonseed oil, Heating Temp. 40 °C, Obs. Temp. 40 °C); over 401 mg/mL in data set [2] (setting [11]); under 52 mg/mL in data set [2] (40 °C, oil or lipid, Approximate Solubility in Excipient: Sesame oil, Heating Temp. 40 °C, Obs. Temp. 40 °C); over 404 mg/mL in data set [2] (setting [12]); under 20 mg/mL in data set [2] (40 °C, organic solvent or mixture, Approximate Solubility in Excipient: Ethanol, Heating Temp. 40 °C, Obs. Temp. 40 °C). In data set [2] (40 °C, Heating Temp. 40 °C, Obs. Temp. 40 °C), this molecule returned a thermodynamic solubility of under 0.0002 mg/mL. For the same molecule, the AUC(0-inf) in [5] (80 mg/kg) is 679 ng·h/mL; in data set [5] (123 mg/kg), 2570 ng·h/mL; in data set [5] (165 mg/kg), 2790 ng·h/mL; in data set [3] (30 mg/kg, IM 30 mg/kg), 521 ng·h/mL; in [3] (48 mg/kg, IM 48 mg/kg), 1140 ng·h/mL; in [3] (96 mg/kg, IM 96 mg/kg) it was 1350 ng·h/mL. Besides, the half-life is 1550 h in data set [5] (80 mg/kg); 884 h in [5] (123 mg/kg); 500 h in data set [5] (165 mg/kg); 134 h in data set [3] (30 mg/kg, IM 30 mg/kg); 518 h in data set [3] (48 mg/kg, IM 48 mg/kg); 162 h in [3] (96 mg/kg, IM 96 mg/kg). Besides, in data set [6], the “% remaining at 60 minutes, Human” value was determined as 59.8%. Also, the “% remaining at 60 minutes, Monkey” value in data set [7] turned out to be 76.7%. Further, in data set [8], the “% remaining at 60 minutes, Dog” value is recorded as 80.9%.
`C=C1CC[C@@]2(O)C3Cc4ccc(OC(=O)CCCCCCCCCCCCCCC)c5c4[C@@]2(CCN3CC2CC2)[C@H]1O5` [Compound 56, (4aS,7aS,12bS)-3-(cyclopropylmethyl)-4a-hydroxy-7-methylene-2,3,4,4a,5,6,7,7a-octahydro-1H-4,12-methanobenzofuro[3,2-e]isoquinolin-9-yl palmitate] had a melting point of 48.95 °C. Moreover, in data set [2] (setting [9]), the solubility at 24 h is under 50 mg/mL. This molecule also had a solubility at 24 h in data set [2] (setting [10]) of under 50 mg/mL. The solubility in data set [2] (setting [11]) was 25 to 50 mg/mL (≈ 43.3 to 86.5 mM). In data set [2] (setting [12]), this molecule gave a solubility of 25 to 50 mg/mL (≈ 43.3 to 86.5 mM). Moreover, the solubility in data set [2] (40 °C, organic solvent or mixture, Approximate Solubility in Excipient: Ethanol, Heating Temp. 60 °C, Obs. Temp. 40 °C) was under 40.4 mg/mL. In data set [2] (40 °C, Heating Temp. 60 °C, Obs. Temp. 40 °C), the solubility (thermodynamic) was 0.0679 mg/mL (≈ 0.118 mM).
